The record followed here is US10584124B2, “Crystalline forms” (Array BioPharma Inc., priority 2017, dated 2020).

Each structure is given as a SMILES string.

Data set [1] is described as follows: Stability screening of freebase and selected salts of Formula I, 40° C. and 75% RH, weekly HPLC over 4 weeks.
The nature of data set [2]: Solubility test of the HBr salt of the compound of Formula I. It counts as physicochemical. The conditions noted are these: for Appearance at 25° C. after 2 h / Solids dissolve at 65° C.?: HBr salt; for Appearance at 25° C. after 2 h: 10-20 mg in 1 mL; for Solids dissolve at 65° C.?: 65° C. for 3 hours.
Data set [3] in a line: Primary salt screen of the compound of Formula II: XRPD post-cycling and post-stability (40° C., 75% RH overnight). It counts as physicochemical. The conditions noted are these: compound of Formula II + the acid given as label; for XRPD post-cycling: cycled RT/40° C. over 24 hours; for XRPD post-stability: 40° C. and 75% RH overnight. On the procedure:
The salt screen was performed as follows. […] In cases where stock solutions could not be attained, the acid was added neat to the solution of the compound of Formula II.
The samples were then temperature cycled between ambient (RT) and 40° C. in 4-hour cycles over 24 hours. Each mixture was filtered and isolated solids were analyzed (wet) by XRPD to determine crystallinity and form. Samples in which solid was not observed were stored uncapped to allow solvent evaporation. The remaining samples were placed in an oven at 40° C. and 75% RH overnight. The samples were then reanalyzed by XRPD to determine any changes in form or crystallinity. The observations and results, including the different diffractogram patterns observed during the screen, are shown in Tables 29-53, below, and FIGS. 24A-24B through 47A-47B.

With `COc1ccc(CN2CCN(c3ccc(-c4cc(-c5cnn(C)c5)cn5ncc(C#N)c45)cn3)CC2)cn1` [Freebase I], the Absolute % change in data set [1] (40° C. and 75% RH, T = 0 to 4 weeks) is listed as 0.4%. For the same compound, in data set [1] (stored at 40° C. and 75% RH, 1 week), the “Stability, HPLC analysis, T = 1 week” value turned out to be 97.3%. Besides, the “Stability, HPLC analysis, T = 2 weeks” value in data set [1] (stored at 40° C. and 75% RH, 2 weeks) is listed as 97.1%. Besides, the “Stability, HPLC analysis, T = 3 weeks” value in data set [1] (stored at 40° C. and 75% RH, 3 weeks) is 97.1%. Besides, the “Stability, HPLC analysis, T = 4 weeks” value in data set [1] (stored at 40° C. and 75% RH, 4 weeks) is reported as 96.9%. The “Stability, HPLC analysis, T = 0” value in data set [1] (stored at 40° C. and 75% RH, T = 0) is 97.3%.
For `Br.COc1ccc(CN2CCN(c3ccc(-c4cc(-c5cnn(C)c5)cn5ncc(C#N)c45)cn3)CC2)cn1` [HBr salt], the solubility – broadly, how much of the substance goes into solution per volume – in data set [2] (DMSO) came out at 1.95 mg/mL. Moreover, the “Appearance at 25° C. after 2 h” value in data set [2] (solvent 2-methyl THF), in data set [2] (solvent ACN), in data set [2] (solvent Acetone), in data set [2] (solvent DCE), in data set [2] (solvent DCM) and in data set [2] (solvent DMSO) was “Solids” in each case. The “Appearance at 25° C. after 2 h” value in data set [2] (solvent EtOAc), in data set [2] (solvent EtOH), in data set [2] (solvent IPA), in data set [2] (solvent MEK), in data set [2] (solvent MTBE) and in data set [2] (solvent MeOH) was “Solids” throughout. For the same compound, the “Appearance at 25° C. after 2 h” value in data set [2] (solvent THF), in data set [2] (solvent iPAc) and in data set [2] (solvent water) was “Solids” each time. Further, the “Solids dissolve at 65° C.?” value in data set [2] (solvent 2-methyl THF), in data set [2] (solvent ACN), in data set [2] (solvent Acetone), in data set [2] (solvent DCE), in data set [2] (solvent DCM) and in data set [2] (solvent DMSO) was “No” in each case. In addition, the “Solids dissolve at 65° C.?” value in data set [2] (solvent EtOAc), in data set [2] (solvent EtOH), in data set [2] (solvent IPA), in data set [2] (solvent MEK), in data set [2] (solvent MTBE) and in data set [2] (solvent MeOH) was “No” in each case. For the same compound, the “Solids dissolve at 65° C.?” value in data set [2] (solvent THF), in data set [2] (solvent iPAc) and in data set [2] (solvent water) was “No” throughout. In data set [2] (solvent systems examined), the “Solubility (in words)” value is listed as “low solubility”. Besides, the “Solids upon heating to 65° C.” value in data set [2] (solvent systems examined, 65° C.) was “did not dissolve”.
Consider `CS(=O)(=O)O` [Methane sulfonic acid], for which the XRPD post-cycling entry is listed as “Amorphous” in data set [3] (Acetone/water (10%)); “No solid” in data set [3] (Dioxane/water (10%)); “Amorphous” in data set [3] (EtOH/water (10%)); “Form 2” in data set [3] (IPA/water (10%)); “No solid” in data set [3] (MeCN/water (20%)); “No solid” in data set [3] (THF/water (1%)). For the same compound, the XRPD post-stability result is recorded as “Amorphous” in data set [3] (from Acetone/water (10%)); “No solid” in data set [3] (from Dioxane/water (10%)); “Amorphous” in data set [3] (from EtOH/water (10%)); “Form 2” in data set [3] (from IPA/water (10%)); “No solid” in data set [3] (from MeCN/water (20%)); “No solid” in data set [3] (from THF/water (1%)).
Take `O=S(=O)(O)c1ccc2ccccc2c1` [Naphthalene-2-sulfonic acid]: the figures for the XRPD post-cycling result in data set [3] (EtOH/water (10%)) and in data set [3] (THF/water (1%)) were “Form 2” and “Form 5”, respectively. In data set [3] (from EtOH/water (10%)), the XRPD post-stability entry was “Form 2”.
As to `O=C(O)C(=O)O` [Oxalic acid], the XRPD post-cycling result in data set [3] (Acetone/water (10%)) is reported as “Amorphous”; in data set [3] (Dioxane/water (10%)), “Form 6”; in data set [3] (EtOH/water (10%)), “Amorphous”; in data set [3] (IPA/water (10%)), “Amorphous”; in data set [3] (MeCN/water (20%)), “No solid”; in data set [3] (THF/water (1%)), “No solid”. Also, the XRPD post-stability entry is “Form 6” in data set [3] (from Dioxane/water (10%)); “Form 6” in data set [3] (from EtOH/water (10%)); “Form 6” in data set [3] (from IPA/water (10%)); “No solid” in data set [3] (from MeCN/water (20%)); “No solid” in data set [3] (from THF/water (1%)).
Consider `O=P(O)(O)O` [Phosphoric acid], for which the XRPD post-cycling entry is “Form 9” in data set [3] (Acetone/water (10%)); “No solid” in data set [3] (Dioxane/water (10%)); “Form 10” in data set [3] (IPA/water (10%)); “No solid” in data set [3] (MeCN/water (20%)); “Amorphous” in data set [3] (THF/water (1%)). Moreover, the XRPD post-stability result is on record as “No solid” in data set [3] (from Dioxane/water (10%)); “Form 10” in data set [3] (from EtOH/water (10%)); “Form 10” in data set [3] (from IPA/water (10%)); “No solid” in data set [3] (from MeCN/water (20%)); “Form 10” in data set [3] (from THF/water (1%)).
Take `O=S(=O)(O)O` [Sulfuric acid]: the XRPD post-cycling entry is given as “No solid” in data set [3] (Acetone/water (10%)); “No solid” in data set [3] (Dioxane/water (10%)); “No solid” in data set [3] (EtOH/water (10%)); “Form 3” in data set [3] (IPA/water (10%)); “No solid” in data set [3] (MeCN/water (20%)); “No solid” in data set [3] (THF/water (1%)). The XRPD post-stability result in data set [3] (from Acetone/water (10%)) is on record as “No solid”; in data set [3] (from Dioxane/water (10%)) it was “No solid”; in data set [3] (from EtOH/water (10%)), “No solid”; in data set [3] (from IPA/water (10%)) it was “Form 5”; in data set [3] (from MeCN/water (20%)), “No solid”; in data set [3] (from THF/water (1%)), “No solid”.
On to `Cc1ccc(S(=O)(=O)O)cc1` [p-Toluene sulfonic acid], for which the XRPD post-cycling entry in data set [3] (Acetone/water (10%)) was “Form 4”; in data set [3] (Dioxane/water (10%)), “No solid”; in data set [3] (EtOH/water (10%)) it was “Amorphous”; in data set [3] (IPA/water (10%)), “Amorphous”; in data set [3] (MeCN/water (20%)), “No solid”. Further, the XRPD post-stability result in data set [3] (from Acetone/water (10%)) was “Form 4”; in data set [3] (from Dioxane/water (10%)) it was “No solid”; in data set [3] (from EtOH/water (10%)) it was “Amorphous”; in data set [3] (from IPA/water (10%)), “Form 4”; in data set [3] (from MeCN/water (20%)), “No solid”; in data set [3] (from THF/water (1%)), “Form 4”.
